Like-named read-outs stand apart in the source and are kept apart here.
Assays:
Type in all cases: cell-based
LS411N cells = experiment: DHX9 cellular proliferation assay (CellTiter-Glo), LS411N (CRC-MSI); settings: Homo sapiens, LS-411N, read-out: LS411N (CRC-MSI-H) Antiproliferative IC50
[1] = system: circBRIP1 in HCT116 cells; experiment: DHX9 circBRIP1 cellular target engagement TaqMan Multiplex assay (qPCR); settings: Homo sapiens, HCT-116, circBRIP1, HCT116 cells; * Taqman assay was used; read-out: DHX9 Cellular Target Engagement EC50
NCI-H747 cells = experiment: DHX9 cellular proliferation assay (CellTiter-Glo), NCI-H747 (CRC-MSS); settings: Homo sapiens
[2] = system: circBRIP1 in HCT116 cells; experiment: DHX9 circBRIP1 cellular target engagement SYBR Green assay (qPCR); settings: Homo sapiens, HCT-116, circBRIP1, HCT116 cells, read-out: DHX9 Cellular Target Engagement EC50
[3] = NCI-H747, NCI-H747, performed at Pharmaron, read-out: H747 (CRC-MSS) Antiproliferative IC50
[4] = LS411N, CRC-MSI-H, performed at Pharmaron
[5] = NCI-H747, NCI-H747, CRC-MSS, performed at Pharmaron, read-out: H747 (CRC-MSS) Antiproliferative IC50

| SMILES | IC50 (LS411N cells; LS411N, performed at Pharmaron) [nM] | IC50 (NCI-H747 cells; [3]) [nM] | EC50 ([2]; SyBr assay (marked ^+)) [nM] | IC50 (LS411N cells; [4]) [nM] | IC50 (NCI-H747 cells; [5]) [nM] | EC50 ([2]; ^+ SyBr assay was used) [nM] | further results |
| --- | --- | --- | --- | --- | --- | --- | --- |
| Cn1cc(C(=O)Nc2cc(Cl)cc(NS(C)(=O)=O)c2)cc1-c1ccc(N2CCCC2)cn1 [Example 402] | 167 | 7050 |  |  |  |  | EC50 [1]: 68.6 nM |
| Cn1cc(C(=O)Nc2cc(Cl)cc(NS(C)(=O)=O)c2)cc1-c1ccc(N2CCC(F)(F)C2)cn1 [Example 527] | 65.4 | 5580 |  |  |  |  | EC50 [1]: 109 nM |
| Cn1cc(C(=O)Nc2cc(Cl)cc(NS(C)(=O)=O)c2)cc1-c1ncc(F)cc1C#N [Example 546] | 1090 | > 10000 |  |  |  |  | EC50 [1]: 109 nM |
| CS(=O)(=O)Nc1cc(Cl)cc(NC(=O)c2cnn(-c3ncccc3OCc3cccc(Cl)c3)c2)c1 [Example 70] |  |  | 107 | 375 | > 10000 |  |  |
| Cn1cc(C(=O)Nc2cc(Cl)cc(NS(C)(=O)=O)c2)cc1-c1ccc(N2CC3(COC3)C2)cn1 [Example 277] |  |  | 47.6 | 66.7 | 4700 |  |  |
| Cc1cc(C(=O)Nc2cc(Cl)cc(NS(C)(=O)=O)c2)cn1-c1ncc(N2CCC2)cn1 [Example 398] | 116 | > 10000 |  |  |  | 41.1 |  |
| CN1C(=O)N(c2csc(C(=O)Nc3cc(Cl)cc(NS(C)(=O)=O)c3)c2)C(=O)C1(C)C [Example 432] | 141 | > 10000 |  |  |  | 112 |  |
| Cc1cc(C(=O)Nc2cc(Cl)cc(NS(C)(=O)=O)c2)cn1-c1ccc(F)cn1 [Example 390] |  |  | 167 | 63.1 | > 10000 |  |  |
| Cc1cccnc1-n1cc(C(=O)Nc2cc(Cl)cc(NS(C)(=O)=O)c2)cc1C [Example 130] |  |  | 489 | 1160 | > 10000 |  |  |
| Cc1cc(C(=O)Nc2cc(Cl)cc(NS(C)(=O)=O)c2)cn1-c1ccc(N2CC(F)(F)C2)cn1 [Example 399] | 95.2 | 8890 |  |  |  | 34.4 |  |
| Cc1cc(C(=O)Nc2cc(Cl)cc(NS(C)(=O)=O)c2)cn1-c1ccc(N2CCC(F)(F)C2)cn1 [Example 396] | 122 | > 10000 |  |  |  | 33 |  |
| Cn1cc(C(=O)Nc2cc(Cl)cc(NS(C)(=O)=O)c2)cc1-c1ncc(C(F)(F)F)cn1 [Example 571] | 159 | 3560 |  |  |  | 62.1 |  |
| CS(=O)(=O)Nc1cc(Cl)cc(NC(=O)c2cc(-c3ncccc3OCc3cccnc3)cs2)c1 [Example 217] |  |  | 13.6 | 53.3 | > 10000 |  |  |
| COc1cc2cc(C(=O)Nc3cc(Cl)cc(NS(C)(=O)=O)c3)sc2cc1OC [Example 291] |  |  | 803 | 352 | > 10000 |  |  |
| Cc1sc(C(=O)Nc2cc(Cl)cc(NS(C)(=O)=O)c2)cc1-c1ncccc1OCc1cncc(F)c1 [Example 621] | 8.7 | > 10000 |  |  |  | 2 |  |
| Cc1sc(C(=O)Nc2cc(Cl)cc(NS(C)(=O)=O)c2)cc1-c1ccc(F)cn1 [Example 35] |  |  | 37.2 | 76.8 | > 10000 |  |  |
| Cc1cc(C(=O)Nc2cc(Cl)cc(NS(C)(=O)=O)c2)cn1-c1ccc(C(F)(F)F)cn1 [Example 443] | 353 | 4360 |  |  |  | 96 |  |
| Cc1cc(C(=O)Nc2cc(Cl)cc(NS(C)(=O)=O)c2)cn1-c1ncc(N2CC(F)(F)C2)cn1 [Example 418] | 139 | > 10000 |  |  |  | 67.4 |  |
| COc1ccc(-c2cc(C(=O)Nc3cc(Cl)cc(NS(C)(=O)=O)c3)cn2C)nc1 [Example 573] | 103 | > 10000 |  |  |  | 106 |  |

| SMILES | IC50 (LS411N cells; LS411N, performed at Pharmaron) [nM] | IC50 (NCI-H747 cells; [3]) [nM] | EC50 ([2]; SyBr assay (marked ^+)) [nM] | IC50 (LS411N cells; [4]) [nM] | IC50 (NCI-H747 cells; [5]) [nM] | EC50 ([2]; ^+ SyBr assay was used) [nM] | further results |
| --- | --- | --- | --- | --- | --- | --- | --- |
| Cc1cc(C(=O)Nc2cc(Cl)cc(NS(C)(=O)=O)c2)cn1-c1ccc(N2CCCC2=O)cn1 [Example 410] | 373 | > 10000 |  |  |  | 21.2 |  |
| CC1CN(c2ccc(-n3cc(C(=O)Nc4cc(Cl)cc(NS(C)(=O)=O)c4)cn3)nc2)CCO1 (stereo not drawn) [Example 92] |  |  | 281 | 1100 | > 10000 |  |  |
| Cc1cc(C(=O)Nc2cc(Cl)cc(NS(C)(=O)=O)c2)cn1-c1ccc(N2CCC2)cn1 [Example 397] | 46.5 | 6940 |  |  |  | 26.3 |  |
| Cn1cc(C(=O)Nc2cc(Cl)cc(NS(C)(=O)=O)c2)cc1-c1ncccn1 [Example 82] |  |  | 73.2 | 134 | > 10000 |  |  |
| COc1ccc(-n2cc(C(=O)Nc3cc(Cl)cc(NS(C)(=O)=O)c3)cc2C)nc1 [Example 391] |  |  | 63 | 171 | > 10000 |  |  |
| Cn1cc(C(=O)Nc2cc(Cl)cc(NS(C)(=O)=O)c2)cc1-c1ccc(N2CC(F)(F)C2)cn1 [Example 595, N-(3-chloro-5-methanesulfonamidophenyl)-5-[5-(3,3-difluoroazetidin-1-yl)pyridin-2-yl]-1-methyl-1H-pyrrole-3-carboxamide] | 167 | 7400 |  |  |  | 35.2 |  |
| CS(=O)(=O)Nc1cc(Br)cc(NC(=O)c2cc(-c3cnccn3)cs2)c1 [Example 18] |  |  | 98.4 | 546 | > 10000 |  |  |
| CS(=O)(=O)Nc1cc(Br)cc(NC(=O)c2cc(-c3ccccn3)n(CC#N)c2)c1 [Example 95, N-(3-bromo-5-methanesulfonamidophenyl)-1-(cyanomethyl)-5-(pyridin-2-yl)-1H-pyrrole-3-carboxamide] |  |  | 179 |  |  |  | IC50 (LS411N cells): 1020 nM; IC50 (NCI-H747 cells; NCI-H747, read-out: H747 (CRC-MSS) Antiproliferative IC50): 7990 nM |
| Cn1cc(C(=O)Nc2cc(Cl)cc(NS(C)(=O)=O)c2)cc1-c1ncccc1OCC1CC1 [Example 584] | 122 | > 10000 |  |  |  | 42.1 |  |
| CCOc1cnc(-n2cc(C(=O)Nc3cc(Cl)cc(NS(C)(=O)=O)c3)cc2C)nc1 [Example 208] |  |  | 125 | 218 | > 10000 |  |  |
| Cc1cccnc1-c1cc(C(=O)Nc2cc(Cl)cc(NS(C)(=O)=O)c2)cn1C [Example 81] |  |  | 290 | 1070 | > 10000 |  |  |
| CS(=O)(=O)Nc1cc(Cl)cc(NC(=O)c2cc(-c3ncccc3OCc3cncc(F)c3)cs2)c1 [Example 620, N-(3-chloro-5-methanesulfonamidophenyl)-4-{3-[(5-fluoropyridin-3-yl)methoxy]pyridin-2-yl}thiophene-2-carboxamide] | 26.4 | > 10000 |  |  |  | 6.2 |  |
| Cc1cc(C(=O)Nc2cc(Cl)cc(NS(C)(=O)=O)c2)cn1-c1ccc(N2CC(F)C2)cn1 [Example 395] | 117 | 9220 |  |  |  | 23.8 |  |
| CCOc1ccc(-n2cc(C(=O)Nc3cc(Cl)cc(NS(C)(=O)=O)c3)cc2C)nc1 [Example 437] | 123 | > 10000 |  |  |  | 46.8 |  |
| CS(=O)(=O)Nc1cc(Cl)cc(NC(=O)c2cnn(-c3ccccc3OCc3cccc(F)c3)c2)c1 [Example 210] |  |  | 77.2 | 111 | > 10000 |  |  |
| Cc1cccc(O)c1-c1csc(C(=O)Nc2cc(Br)cc(NS(C)(=O)=O)c2)c1 [Example 19] |  |  | 2110 | 1080 | > 10000 |  |  |
| CC(C)c1sc(C(=O)Nc2cc(Cl)cc(NS(C)(=O)=O)c2)cc1-c1ccccn1 [Example 233] |  |  | 460 | 356 | > 10000 |  |  |
| COCc1cnc(-c2cc(C(=O)Nc3cc(Cl)cc(NS(C)(=O)=O)c3)cn2C)nc1 [Example 690] | 183 | > 10000 |  |  |  | 55.7 |  |
| CS(=O)(=O)Nc1cc(Br)cc(NC(=O)c2cc(-c3ncccn3)cs2)c1 [Example 25] |  |  | 48 | 99.1 | > 10000 |  |  |

From patent publication US12162867B2, “Inhibitors of RNA helicase DHX9 and uses thereof” (ACCENT THERAPEUTICS, INC., priority 2022, dated 2024)
